Test results reported in PMC12088962, “Design, synthesis, and biological investigation of new thiazole-based derivatives as multi-targeted inhibitors endowed with antiproliferative, antioxidant, and antibacterial properties” (Frontiers in Chemistry, 2025).
Values after ≈ are worked out from the molar mass of the structure shown. Read-outs that look alike come from different tables or passages of the source.

Columns and labels:
MCF-10A cells = details: 50 µM
E. coli DNA gyrase = E. coli DNA gyrase (Escherichia coli, UniProt P0AES6); assay: DNA gyrase supercoiling assay; format: biochemical
Protocol: 4.2.3. Determination of Inhibitory Activities on E. coli DNA Gyrase.
All the final compounds were tested for E. coli DNA gyrase inhibitory activity in a supercoiling assay. Activities were determined on streptavidin -coated 96-well microtiter plates from Thermo scientific Pierce. First, the plates were rehydrated with buffer (20 mM Tris -HCl with pH 7.6, 0.01% […]
immobilized. After washing off the unbound oligonucleotide, the enzyme test was performed. The reaction volume of 30 μL in buffer (35 mM Tris-HCl with pH 7.5, 4 mM MgCl 2, 24 mM KCl, 2 […]
1.5 U of DNA gyrase from E. coli or S. aureus, 0.75 μg of relaxed pNO1 plasmid, and 3 μL solution of the inhibitor in 1 0% DMSO and 0.008% Tween 20. Reaction solutions were incubated at 37 °C […]
for 30 min. After that, the TF buffer (50 mM NaOAc with pH 5.0, 50 mM NaCl and 50 mM MgCl2) was added to terminate the enzymatic reaction. After additional incubation for 30 min at rt, during which biotin-oligonucleotide-plasmid triplex was formed, the unbound plasmid was washed off using TF buffer and SybrGOLD in T10 buffer (10 mM Tris HCl wit h pH 8.0 and 1 mM EDTA) was added. The fluorescence was measured with a microplate reader (BioTek Synergy H4, excitation: 485 nm, emission: 535 nm). […]
tested compounds. GraphPad Prism software was used to calculate the IC50 values. The result is given as the average value of three independent measurements. […]

MCF-7 cells = assay: Antiproliferative MTT assay
From the text: (§8) Dose-response assays determined the IC50 values for the novel compounds. We derived the reported data from a minimum of two separate experiments, each consisting of three repetitions per concentration.
Assay for antiproliferative effect

HT-29 cells = assay: Antiproliferative MTT assay
From the text: as §8
Assay for antiproliferative effect

A-549 cells = assay: Antiproliferative MTT assay
From the text: as §8
Assay for antiproliferative effect

[1] = tested on: four cancer cell lines (A-549, MCF-7, Panc-1, HT-29); assay: Antiproliferative MTT assay, average over four cancer cell lines; details: for GI50: read-out: Antiproliferative activity, Average (GI50)
From the text: as §8
Assay for antiproliferative effect

Panc-1 cells = assay: Antiproliferative MTT assay
From the text: as §8
Assay for antiproliferative effect

[2] = molecular target: S. aureus topoisomerase IV; details: read-out: IC50 for S. aureus topoisomerase IV (internal standard value); value stated in the supplementary method, no reference given; cited from earlier work
EGFR = EGFR (Homo sapiens, UniProt P00533); assay: EGFR-TK inhibitory assay
EGFR, sequence (P00533 669-1210): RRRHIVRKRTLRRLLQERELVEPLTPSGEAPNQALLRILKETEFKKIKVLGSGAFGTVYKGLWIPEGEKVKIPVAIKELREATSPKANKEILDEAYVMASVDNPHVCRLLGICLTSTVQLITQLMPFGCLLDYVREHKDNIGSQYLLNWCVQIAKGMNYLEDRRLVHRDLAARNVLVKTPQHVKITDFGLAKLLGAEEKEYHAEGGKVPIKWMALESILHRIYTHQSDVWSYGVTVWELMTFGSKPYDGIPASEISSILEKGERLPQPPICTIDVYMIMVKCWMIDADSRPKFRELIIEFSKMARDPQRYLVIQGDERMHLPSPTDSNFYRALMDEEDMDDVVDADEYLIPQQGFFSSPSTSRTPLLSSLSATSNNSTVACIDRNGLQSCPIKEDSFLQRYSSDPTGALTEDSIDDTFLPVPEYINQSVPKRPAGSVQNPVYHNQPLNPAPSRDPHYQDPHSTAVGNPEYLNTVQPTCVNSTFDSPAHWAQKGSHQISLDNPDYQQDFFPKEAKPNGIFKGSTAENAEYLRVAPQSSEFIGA
Protocol: Baculoviral expression vectors including pBlueBacHis2B and pFASTBacHTc were used
5ʹ upstream to the EGFR sequence comprised a sequence that encoded (His)6. Sf-9 cells were infected for 72h for protein expression. The pellets of Sf-9 cells were solubilized in a buffer containing sodium vanadate (100 μM), aprotinin (10 μg/mL), triton (1%), HEPES buffer(50mM), ammonium molybdate (10 μM), benzamidine HCl (16 μg/mL), NaCl (10 mM),leupeptin (10 μg/mL) and pepstatin (10 μg/mL) at 0°C for 20 min at pH 7.4, followed by centrifugation for 20 min. To eliminate the nonspecifically bound material, a Ni-NTA super flow packed column was used to pass through and wash the crude extract supernatant first with 10mM and then with 100 mM imidazole. Histidine-linked proteins were first eluted with 250 and then with 500 mM imidazole subsequent to dialysis against NaCl (50 mM), HEPES (20 mM), glycerol (10%) and 1 μg/mL each of aprotinin, leupeptin and pepstatin for 120 min. The purification was performed either at 4 °C or on ice. To record autophosphorylation level, EGFR kinase assay was carried out on the basis of DELFIA/Time-Resolved Fluorometry. The compounds were first
dissolved in DMSO absolute, subsequent to dilution to appropriate concentration using HEPES
(25 mM) at pH 7.4. Each compound (10 μL) was incubated with recombinant enzyme (10 μL, 5
ng for EGFR, 1:80 dilution in 100 mM HEPES) for 10 min at 25 °C, subsequent to the addition of
5X buffer (10 μL, containing 2 mM MnCl2, 100 μM Na3VO4, 20 mM HEPES and 1 mM DTT)
and ATP-MgCl2 (20 μL, containing 0.1 mM ATP and 50 mM MgCl2) and incubation for 1h. The
negative and positive controls were included in each plate by the incubation of enzyme either with
or without ATP-MgCl2. The liquid was removed after incubation and the plates were washed
thrice using a wash buffer. The Europium-tagged antiphosphotyrosine antibody (75 μL, 400 ng)
(§9) was added to each well followed by incubation of 1h and then washing of the plates using buffer.
(§10) The enhancement solution was added to each well and the signal was recorded at excitation and
(§11) The autophosphorylation percentage inhibition by compounds was calculated using the following equation:
calculated. The majority of signals detected by antiphosphotyrosine antibody were from EGFR because the enzyme preparation contained low impurities.

B. subtilis = assay: MIC by twofold serial dilution; format: cell-based, Bacillus subtilis (ATCC 6051)
Protocol: (§1) The antibacterial efficacy of compounds 11b, 11e, and 12b was evaluated against Gram-positive bacteria (S. aureus and B. subtilis) and Gram-negative bacteria (E. coli and P. aeruginosa). Table 5 presents the MICs (nM) of these compounds against the evaluated bacteria, utilizing ciprofloxacin as the reference drug, determined through a twofold serial dilution approach on a 96-well microtiter plate ([Frejat F. O. et al., 2022]).
as §1, with “The” for “Table 5 presents the”, “the tested” for “these”, “bacteria were” for “bacteria, utilizing ciprofloxacin as the reference drug,”, “2022]). See Appendix A for more details.” for “2022]).”
(§2) 4.2. Antimicrobial activity
(§3) 4.2.1. Organisms and culture conditions […]
(§4) 4.2.2. Minimum inhibitory concentration assay
(§5) In 96-well microtiter plates and […] of fresh bacterial culture of a single McFarland unit overnight, a double serial dilution of each compound […] in sterile standard saline were prepared to every single source well. Ciprofloxacin antibiotic (5 mg / mL-1) and normal saline were included as standard reference in each assay. The plates were incubated at 37 0C overnight.
(§6) As an indicator of bacterial growth, […] of p -iodonitrotetrazolium violet (INT) was added to each well and incubated at 37 0C for 30 min. MIC values are recorded as the lowest concentration […]
(§7) tetrazolidium salt acts as an electron accepter and is reduced to a red colored formazan product by biological activity organisms. Where bacterial growth was inhibited, the solution in the well remained clear after incubation with INT. […]

S. aureus = assay: MIC by twofold serial dilution; format: cell-based, Staphylococcus aureus (ATCC 12600); details: Staphylococcus aureus; Gram-positive; read-out: Minimum inhibitory concentration (MIC), S. aureus
Protocol: as §1
as §1, with “The” for “Table 5 presents the”, “the tested” for “these”, “bacteria were” for “bacteria, utilizing ciprofloxacin as the reference drug,”, “2022]). See Appendix A for more details.” for “2022]).”
as §2, §3, §4, §5, §6, §7

P. aeruginosa = assay: MIC by twofold serial dilution; format: cell-based, Pseudomonas aeuroginosa (ATCC 10145); details: Pseudomonas aeruginosa; Gram-negative; read-out: Minimum inhibitory concentration (MIC), P. aeruginosa
Protocol: as §1
as §1, with “The” for “Table 5 presents the”, “the tested” for “these”, “bacteria were” for “bacteria, utilizing ciprofloxacin as the reference drug,”, “2022]). See Appendix A for more details.” for “2022]).”
as §2, §3, §4, §5, §6, §7

E. coli = assay: MIC by twofold serial dilution; format: cell-based, Escherichia coli (ATCC 11775); details: Escherichia coli; Gram-negative; read-out: Minimum inhibitory concentration (MIC), E. coli
Protocol: as §1
as §1, with “The” for “Table 5 presents the”, “the tested” for “these”, “bacteria were” for “bacteria, utilizing ciprofloxacin as the reference drug,”, “2022]). See Appendix A for more details.” for “2022]).”
as §2, §3, §4, §5, §6, §7

VEGFR-2 = VEGFR-2 (Homo sapiens, UniProt P35968); assay: VEGFR-2 inhibitory assay
VEGFR-2, sequence (P35968 20-1356): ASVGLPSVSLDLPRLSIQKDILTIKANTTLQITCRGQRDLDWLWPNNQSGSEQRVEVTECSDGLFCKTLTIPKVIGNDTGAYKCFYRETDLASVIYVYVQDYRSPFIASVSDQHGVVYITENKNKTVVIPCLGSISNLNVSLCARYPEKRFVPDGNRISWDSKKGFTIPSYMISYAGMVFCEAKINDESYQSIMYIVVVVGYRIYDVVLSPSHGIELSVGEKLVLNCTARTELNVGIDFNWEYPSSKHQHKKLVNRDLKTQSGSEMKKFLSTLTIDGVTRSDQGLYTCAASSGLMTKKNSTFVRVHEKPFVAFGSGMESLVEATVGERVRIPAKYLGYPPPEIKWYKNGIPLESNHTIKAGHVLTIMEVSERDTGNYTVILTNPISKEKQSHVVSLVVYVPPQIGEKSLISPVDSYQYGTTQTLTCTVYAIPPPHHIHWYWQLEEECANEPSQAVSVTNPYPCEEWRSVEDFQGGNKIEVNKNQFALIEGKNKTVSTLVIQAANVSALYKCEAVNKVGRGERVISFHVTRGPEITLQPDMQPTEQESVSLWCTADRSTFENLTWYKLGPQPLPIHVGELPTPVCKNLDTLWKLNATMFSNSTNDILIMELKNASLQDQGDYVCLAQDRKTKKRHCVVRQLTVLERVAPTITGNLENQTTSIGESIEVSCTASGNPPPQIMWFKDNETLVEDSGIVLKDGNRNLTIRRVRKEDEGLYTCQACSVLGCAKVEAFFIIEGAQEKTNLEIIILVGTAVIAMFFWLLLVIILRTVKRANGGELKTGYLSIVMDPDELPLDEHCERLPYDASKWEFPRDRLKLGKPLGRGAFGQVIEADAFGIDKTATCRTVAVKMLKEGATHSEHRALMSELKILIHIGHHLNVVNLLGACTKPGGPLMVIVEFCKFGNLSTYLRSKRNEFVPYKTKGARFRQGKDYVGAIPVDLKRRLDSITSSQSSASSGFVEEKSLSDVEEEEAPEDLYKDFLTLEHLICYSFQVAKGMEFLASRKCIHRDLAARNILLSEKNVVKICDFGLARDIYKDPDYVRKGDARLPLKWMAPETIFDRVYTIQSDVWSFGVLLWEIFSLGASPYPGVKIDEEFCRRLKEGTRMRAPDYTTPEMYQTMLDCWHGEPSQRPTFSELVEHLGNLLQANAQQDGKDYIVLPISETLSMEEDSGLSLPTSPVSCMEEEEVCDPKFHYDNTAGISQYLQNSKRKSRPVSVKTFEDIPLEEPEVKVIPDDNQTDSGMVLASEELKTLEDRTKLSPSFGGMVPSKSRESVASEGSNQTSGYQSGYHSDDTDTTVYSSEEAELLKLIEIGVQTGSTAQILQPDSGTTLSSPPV
Protocol: The outcomes are presented as IC50 values.
as §9, §10, §11
Prepare all the solutions using autoclaved, deionized water and analytical grade reagents.
and store all the reagents at room temperature (unless indicated otherwise).
solution, add 5 mL ultra-pure water; 1×Kinase Assay Buffer: add 25 mL HEPES solution (1 M),
water, adjust pH to 7.5 and constant volume to 500 mL using ultrapure water; 4×Stop solution (40
mM): Mix 0.8 mL of the foregoing EDTA solution, 1 mL 10×Detection Buffer and 8.2 mL ultra-
pure water; 1×Detection Buffer: Mix 1 mL 10×Detection Buffer with 9 mL water; 4×VEGFR
μM) was added to 624 μL 1×Kinase Assay Buffer and mixed; 4×ULight™-labeled JAK1
(substrate) (200 nM, 25 times diluted): 24 μL ULight™-labeled JAK1 (mother liquor
concentration 5 μM) was added to 576 μL 1×Kinase Assay Buffer and mixed; 4×ATP Solution
(40 μM, 250 times diluted): add 3 μL ATP solution (10 mM) to 747 μL 1×Kinase Assay Buffer
2×substrate/ATP Mix: 560 μL foregoing 4×ULight™-labeled JAK1 and 560 μL 4×ATP solution
and mixed (prepared before use). The assays used an ULight-labeled peptide substrate and a
Europium-W1024-labeled antiphosphotyrosine antibody. The VEGFR-2 was purchased from
Carna Biosciences, Inc. (New York, USA). The 384-well plates were obtained from PerkinElmer.
5 μL 2×VEGFR-2 kinase solution (0.5 nM)
was added to 384-well plates homogeneous mixing and pre-reaction at room temperature for 30 min. Next, 2.5 μL 4×Ultra ULightTM-JAK-1(Tyr1023) Peptide (200 nM)/ATP (40 μM) was added to the corresponding wells of a 384-well plate. Negative control: 2.5 μL/well 4×substrate/ATP mixture and 7.5 μL 1×kinase assay buffer in 384-well plate well. Positive control:
μL/well 2×VEGFR-2 kinase solution was added to the 384-well plate, The final concentration of DMSO in the mixing system was 4%. After incubation at room temperature and dark for 60 min, 5 μL 4×stop solution was added to corresponding wells to react for 5 min and then 5 μL 4×detection mix was added to the corresponding wells of a 384-well plate. The mixture was centrifugally mixed and stayed for 60 min at room temperature for color development. The plate was read using a Envision plate reader. The inhibition rate (%) = (positive well reading-compound well reading)/(positive well reading-negative well reading)×100. The corresponding IC50 values were calculated using GraphPad Prism 5.0.

in vitro = details: human, MCF-10A mammary gland epithelial cells (normal cell line)

Compound: (E)-3-(2-((5-(3-(4-Methoxyphenyl)acryloyl)-4-methylthiazol-2-yl)thio) acetyl)-2H-chromen-2-one [Compound 11c]
- Cell viability % (MCF-10A cells): 90%
- RA (residual activity of the enzyme), E. Coli DNA gyrase (E. coli DNA gyrase; at 1 μM of compound): 68%
- IC50 (MCF-7 cells; read-out: Antiproliferative activity IC50 ± SEM, MCF-7, breast cancer MCF-7, MTT): 56 ± 4 nM
- IC50 (HT-29 cells; read-out: Antiproliferative activity IC50 ± SEM, HT-29, colon cancer HT-29, MTT): 57 ± 4 nM
- IC50 (A-549 cells; read-out: Antiproliferative activity IC50 ± SEM, A-549, lung cancer A-549, MTT): 52 ± 4 nM
- Fold less potent than compound 11f (GI50) [1]: twofold
- GI50 ([1]; average IC50 over the four cancer cell lines): 55 nM
- IC50 (Panc-1 cells; read-out: Antiproliferative activity IC50 ± SEM, Panc-1, pancreatic cancer Panc-1, MTT): 54 ± 4 nM

Compound: CO[C@@H]1[C@@H](OC(N)=O)[C@@H](O)[C@H](Oc2ccc3c(O)c(NC(=O)c4ccc(O)c(CC=C(C)C)c4)c(=O)oc3c2C)OC1(C)C [Novobiocin]
- IC50 [2]: 26700 nM

Compound: Cc1nc(SCC(=O)c2cc3cc(Br)ccc3oc2=O)sc1C(=O)/C=C/c1ccc(Cl)cc1 [Compound 11e, (E)-6-Bromo-3-(2-((5-(3-(4-chlorophenyl)acryloyl)-4-methylthiazol-2-yl)thio)acetyl)-2H-chromen-2-one]
- IC50 (EGFR): 89 ± 4 nM
- IC50 (E. coli DNA gyrase): 190 ± 13 nM
- IC50 (MCF-7 cells; Homo sapiens, MCF7, read-out: Antiproliferative activity IC50 ± SEM, MCF-7): 43 ± 2 nM
- Fold less efficient than ciprofloxacin (MIC), B. subtilis (B. subtilis): 2.2 fold
- MIC (B. subtilis; Bacillus subtilis, Gram-positive, read-out: Minimum inhibitory concentration (MIC), B. subtilis): 0.022 ± 0.001 µM (≈ 0.0123 µg/mL)
- MIC (S. aureus): 0.027 ± 0.001 µM (≈ 0.0151 µg/mL)
- IC50 (HT-29 cells; Homo sapiens, HT-29, read-out: Antiproliferative activity IC50 ± SEM, HT-29): 42 ± 2 nM
- IC50 (A-549 cells; Homo sapiens, A549, read-out: Antiproliferative activity IC50 ± SEM, A-549): 37 ± 2 nM
- Fold less potent than compound 11f (GI50) [1]: 1.5 fold
- GI50 ([1]; Homo sapiens): 41 nM
- MIC (P. aeruginosa): 0.053 ± 0.003 µM (≈ 0.0297 µg/mL)
- MIC (E. coli): 0.048 ± 0.003 µM (≈ 0.0269 µg/mL)
- IC50 (Panc-1 cells; Homo sapiens, PANC-1, read-out: Antiproliferative activity IC50 ± SEM, Panc-1): 40 ± 2 nM
- IC50 (VEGFR-2): 4900 ± 30 nM
- viability at 96 h, 50 µM (in vitro): 91%
